Measurements as given in patent publication US20250058002A1, “ELECTROCHEMICAL INHIBITION OF REDOX ACTIVE BACTERIA AND RELATED DEVICES, METHODS AND SYSTEMS” (priority 2023, published 2025).
Like-named read-outs stand apart in the source and are kept apart here.

Tests used:
[1] = Standard electrode potential E0' vs NHE of exemplary redox-active compounds (Table 4); format: physicochemical; conditions: measured in aqueous solution at pH 7 in this study (footnote b)
Description: (§1) Phenazines and other redox active compound in the sense of the disclosure can be further characterized by various electrical properties such as a standard electrode potential E° vs. NHE of −500 mV to 500 mV and other properties such as number of redox cycle over a certain period of time (e.g. number of days) as ability to support survival and susceptibility to reduction by enzymes and/or bacterial strains.

[2] = tested on: PA14; test: Redox cycles over 7 days and support of survival (Table 4); format: cell-based, P. aeruginosa
Description: as §1

[3] = tested on: PA14; test: Reduction of redox-active compound by PA14 (Table 4); format: cell-based, P. aeruginosa
Description: as §1

[4] = oxidized form; literature values (footnotes a, c, d); cited from earlier work

In the case of `CN(C)c1ccc2nc3ccc(=[N+](C)C)cc-3sc2c1` [Methylene blue (MB), Methylene blue], the “E0' (vs. NHE) (mV)” value [1] is reported as 0 mV, the “Support survival?” value [2] is reported as “No” and the “# of Redox cycles over 7 days” value ([2]; over 7 days) is reported as 3. The “Reduction by PA14?” value [3] was “Yes” and the “E0' (vs. NHE) (mV)” value [4] was “+11 mV”.
